How the values were obtained:
Cholinesterase [1] = molecular target: Cholinesterase (Equus caballus, UniProt P81908)
Description: Inhibition of equine serum BuchE

Acetylcholinesterase [2] = molecular target: Acetylcholinesterase (Electrophorus electricus, UniProt O42275)
Description: Inhibition of electric eel AchE

Acetylcholinesterase [3] = molecular target: Acetylcholinesterase (Homo sapiens, UniProt P22303); experiment: Inhibition of AchE
Cholinesterase [4] = molecular target: Cholinesterase (Homo sapiens, UniProt P06276); experiment: Inhibition of BuchE
Cholinesterase (Homo sapiens, UniProt P06276), sequence (P06276 whole entry): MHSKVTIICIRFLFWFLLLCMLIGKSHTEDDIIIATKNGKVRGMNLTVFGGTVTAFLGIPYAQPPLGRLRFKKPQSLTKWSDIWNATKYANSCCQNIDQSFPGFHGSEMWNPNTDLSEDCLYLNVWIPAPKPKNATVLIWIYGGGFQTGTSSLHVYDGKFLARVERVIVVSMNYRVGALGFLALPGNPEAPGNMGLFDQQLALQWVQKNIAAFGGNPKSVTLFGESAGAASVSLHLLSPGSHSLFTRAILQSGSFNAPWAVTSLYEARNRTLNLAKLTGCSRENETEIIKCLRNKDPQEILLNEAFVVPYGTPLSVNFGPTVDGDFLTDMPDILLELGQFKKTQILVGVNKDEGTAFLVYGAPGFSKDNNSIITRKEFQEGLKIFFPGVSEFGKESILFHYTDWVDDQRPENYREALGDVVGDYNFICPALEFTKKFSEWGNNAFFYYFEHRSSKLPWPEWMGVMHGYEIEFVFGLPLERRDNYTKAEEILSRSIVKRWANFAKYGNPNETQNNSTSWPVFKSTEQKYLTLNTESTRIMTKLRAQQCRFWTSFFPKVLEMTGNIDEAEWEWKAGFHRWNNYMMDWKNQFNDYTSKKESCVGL

Acetylcholinesterase (Electrophorus electricus, UniProt O42275), sequence (O42275 whole entry): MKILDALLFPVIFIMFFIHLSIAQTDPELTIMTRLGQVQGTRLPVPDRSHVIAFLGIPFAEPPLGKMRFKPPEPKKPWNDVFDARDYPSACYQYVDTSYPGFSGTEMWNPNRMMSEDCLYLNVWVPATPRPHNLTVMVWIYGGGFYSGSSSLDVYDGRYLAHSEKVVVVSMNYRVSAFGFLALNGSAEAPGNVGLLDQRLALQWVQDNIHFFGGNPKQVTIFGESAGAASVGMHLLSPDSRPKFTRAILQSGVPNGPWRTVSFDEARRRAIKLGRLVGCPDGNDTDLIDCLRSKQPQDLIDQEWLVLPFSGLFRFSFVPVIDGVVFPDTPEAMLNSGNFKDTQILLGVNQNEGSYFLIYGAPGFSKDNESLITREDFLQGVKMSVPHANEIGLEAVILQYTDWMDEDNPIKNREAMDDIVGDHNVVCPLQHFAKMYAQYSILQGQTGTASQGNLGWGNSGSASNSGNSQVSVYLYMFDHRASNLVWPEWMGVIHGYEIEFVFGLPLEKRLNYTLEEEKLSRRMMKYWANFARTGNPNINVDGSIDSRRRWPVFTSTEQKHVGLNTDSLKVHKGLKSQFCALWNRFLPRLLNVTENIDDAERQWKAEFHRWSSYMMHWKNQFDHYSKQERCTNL
Cholinesterase (Equus caballus, UniProt P81908), sequence (P81908 whole entry): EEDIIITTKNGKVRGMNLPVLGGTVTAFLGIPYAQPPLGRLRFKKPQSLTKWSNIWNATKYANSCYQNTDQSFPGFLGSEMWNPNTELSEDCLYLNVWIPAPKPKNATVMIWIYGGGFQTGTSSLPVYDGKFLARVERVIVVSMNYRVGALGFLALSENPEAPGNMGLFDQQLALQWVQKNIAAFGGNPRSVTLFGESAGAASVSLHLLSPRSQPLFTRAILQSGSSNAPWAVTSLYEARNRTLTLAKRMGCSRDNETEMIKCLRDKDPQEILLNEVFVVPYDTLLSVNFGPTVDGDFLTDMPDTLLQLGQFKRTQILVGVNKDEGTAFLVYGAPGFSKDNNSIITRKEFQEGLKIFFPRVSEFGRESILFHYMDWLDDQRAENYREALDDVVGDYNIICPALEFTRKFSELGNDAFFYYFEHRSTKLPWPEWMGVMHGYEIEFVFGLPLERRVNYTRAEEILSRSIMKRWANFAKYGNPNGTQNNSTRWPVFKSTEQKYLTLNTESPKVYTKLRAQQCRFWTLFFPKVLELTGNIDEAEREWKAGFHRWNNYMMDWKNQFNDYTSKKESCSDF
Acetylcholinesterase (Homo sapiens, UniProt P22303), sequence (P22303 whole entry): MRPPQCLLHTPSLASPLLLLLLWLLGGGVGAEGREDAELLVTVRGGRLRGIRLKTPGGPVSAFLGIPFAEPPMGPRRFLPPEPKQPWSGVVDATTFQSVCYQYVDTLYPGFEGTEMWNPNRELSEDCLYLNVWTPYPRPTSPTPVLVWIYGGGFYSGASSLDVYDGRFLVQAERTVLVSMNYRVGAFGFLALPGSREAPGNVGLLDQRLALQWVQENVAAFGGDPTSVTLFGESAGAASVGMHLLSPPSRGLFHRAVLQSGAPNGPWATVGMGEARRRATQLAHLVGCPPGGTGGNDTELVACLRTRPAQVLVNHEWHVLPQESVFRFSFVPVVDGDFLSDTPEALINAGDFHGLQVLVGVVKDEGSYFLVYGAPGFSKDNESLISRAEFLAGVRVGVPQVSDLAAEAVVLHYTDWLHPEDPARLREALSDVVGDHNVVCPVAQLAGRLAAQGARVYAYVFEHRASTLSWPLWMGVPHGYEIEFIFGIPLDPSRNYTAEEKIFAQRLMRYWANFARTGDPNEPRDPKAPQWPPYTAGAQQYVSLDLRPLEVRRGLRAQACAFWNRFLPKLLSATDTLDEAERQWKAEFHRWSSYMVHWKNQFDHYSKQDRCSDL

| Structure (SMILES) | IC50 (Cholinesterase [1]) [µM] | IC50 (Acetylcholinesterase [2]) [µM] | IC50 (Acetylcholinesterase [3]) [µM] | IC50 (Cholinesterase [4]) [µM] |
| --- | --- | --- | --- | --- |
| CCN(CC)CCOc1ccc(CC2CCn3c2nc2ccccc2c3=O)cc1 (stereo not drawn) | > 20 | 1.62 | – | – |
| O=c1c2ccccc2nc2n1CCC2Cc1ccc(OCCCN2CCCCC2)cc1 (stereo not drawn) | 5.72 | 5.58 | – | – |
| O=c1c2ccccc2nc2n1CC/C2=C\c1ccc(OCCCN2CCCCC2)cc1 | 1.66 | 0.72 | – | – |
| O=c1c2ccccc2nc2n1CCC2 [DEOXYVASICINONE] | – | – | 82.5 | 25.1 |
| CCN(CC)CCCOc1ccc(CC2CCn3c2nc2ccccc2c3=O)cc1 (stereo not drawn) | > 20 | 8.95 | – | – |
| O=c1c2ccccc2nc2n1CCC2Cc1ccc(OCCN2CCCCC2)cc1 (stereo not drawn) | 8.29 | 0.75 | – | – |
| CCN(CC)CCCOc1ccc(/C=C2\CCn3c2nc2ccccc2c3=O)cc1 | 7.12 | 2.41 | – | – |
| CCN(CC)CCOc1ccc(/C=C2\CCn3c2nc2ccccc2c3=O)cc1 | 12.7 | 0.48 | – | – |
| O=c1c2ccccc2nc2n1CC/C2=C\c1ccc(OCCN2CCCCC2)cc1 | 2.99 | 0.16 | – | – |

From ChEMBL document CHEMBL1157445, “Design, synthesis and evaluation of isaindigotone derivatives as acetylcholinesterase and butyrylcholinesterase inhibitors” (Bioorg Med Chem Lett, 2008)
